Earlier results, collected in US11610144B2, “Biosignature discovery for substance use disorder using statistical learning” (BioRealm LLC, priority 2018, dated 2023).
Entries after “also recorded” stand apart in the source; their conditions may differ.

Assays:
[1] = test system: smokers, slow and normal nicotine metabolizers; conditions: NMR from direct biochemical measurement
[2] = test system: smokers; conditions: meta-analyses of RCTs

| Structure (SMILES) | response to treatment, VAR versus NRT [1] | smoking cessation efficacy compared with placebo [2] |
| --- | --- | --- |
| c1cnc2cc3c(cc2n1)[C@@H]1CNC[C@H]3C1 [VAR, varenicline] | responded significantly better than those randomized to NRT; also recorded: responded significantly better to VAR than to NRT | significantly more effective than placebo |
| CC(NC(C)(C)C)C(=O)c1cccc(Cl)c1 (stereo not drawn) [BUP, bupropion] | – | significantly more effective than placebo |
